Results reported in US20240336627A1, “NOVEL COMPOUNDS FOR THE DIAGNOSIS OF TDP-43 PROTEINOPATHIES” (AC IMMUNE SA, priority 2021, published 2024).

Target: T1, Human brain derived TDP-43 aggregates (Homo sapiens, UniProt Q13148)
T1 construct: A sample of brain tissue (frontal or temporal cortex) was homogenized; from tissue; host or cells: sarkosyl-insoluble fraction of human FTD brain (frontal or temporal cortex)
Assay: Micro-radiobinding competition assay on human FTD sarkosyl-insoluble brain extracts
Format: binding
Conditions: radioligand [3H]-Compound 52 (75 nM); for Ki: 0.24 nM to 2 μM test compound; for Human brain derived TDP-43 aggregates Mean % competition at 250 nM: 250 nM test compound; for Human brain derived TDP-43 aggregates Mean % competition at 2 μM: 2 μM test compound
Experimental: Human brain extracts were prepared as described in Laferriere et al., 2019, Nature Neurosc. A sample of brain tissue (frontal or temporal cortex) was homogenized at 1:4 (w/v) ratio in the homogenization-solubilization (HS) buffer at 4° C. using tissue homogenizer (Precellys) with CKmix homogenization tubes. The following sequence was used for homogenization: 3 cycles of 30 seconds at 5000 rpm (with 15 seconds pause between each cycle). Homogenized samples were aliquoted and stored at −80° C. in 1.5 mL low protein binding tubes.
Brain homogenates were thawed on ice and resuspended in HS buffer to obtain a final concentration of 2% sarkosyl, 1 unit/μL Benzonase and 1 mM MgCl2. The samples were then incubated at 37° C. under constant shaking at 600 rpm on a thermomixer for 45 minutes (min). The supernatants were collected in a new tube (sarkosyl-soluble fraction, S1). The pellet was resuspended in 1000 μL of myelin floatation buffer and centrifuged at 20,000 g for 60 min at 4° C. The supernatant was carefully removed to remove all the floating lipids. This step was repeated if all the lipids could not be removed in a single step. The pellet was subsequently washed with Phosphate-Buffered Saline (PBS) and centrifuged for 30 min at 20,000 g at 4° C. The final pellet was resuspended in 200 μL PBS and stored at −80° C. (sarkosyl-insoluble fraction). The samples were analyzed by immunoblotting in denaturing conditions.
Human FTD sarkosyl-insoluble brain extracts were spotted onto microarray slides. The slides were incubated with [^3H]-Compound 52 or [^3H]-Compound 16 ligands at 75 nM or 40 nM, respectively, and the example compounds (non-radiolabelled) at 2 μM and 250 nM. In some cases, the non-radiolabelled example compounds were further assessed for a range of different concentrations, varying from 0.24 nM to 2 μM for determination of the inhibition constant (Ki). After incubation, slides were washed and scanned by a real-time autoradiography system (BeaQuant, ai4R). Quantification of the signal was performed by using the Beamage image analysis software (ai4R). Non-specific signal was determined with an excess of non-radiolabelled compound 52 or compound 16 (2 μM) and specific binding was calculated by subtracting the non-specific signal from the total signal. Competition was calculated as percent, where 0% was defined as the specific binding in the presence of vehicle and 100% as the values obtained in the presence of excess of the non-radiolabelled compound 52 or compound 16. Ki values were calculated in GraphPad Prism7 by applying a nonlinear regression curve fit using a one site, specific binding model. Measurements were performed with at least two technical replicates in the two-concentration competition experiment and with one technical replicate in the experiments including a range of concentrations. For compounds tested in more than one experiment, the mean of the replicates or Ki values in independent experiments is reported.

T1 sequence (Q13148 whole entry): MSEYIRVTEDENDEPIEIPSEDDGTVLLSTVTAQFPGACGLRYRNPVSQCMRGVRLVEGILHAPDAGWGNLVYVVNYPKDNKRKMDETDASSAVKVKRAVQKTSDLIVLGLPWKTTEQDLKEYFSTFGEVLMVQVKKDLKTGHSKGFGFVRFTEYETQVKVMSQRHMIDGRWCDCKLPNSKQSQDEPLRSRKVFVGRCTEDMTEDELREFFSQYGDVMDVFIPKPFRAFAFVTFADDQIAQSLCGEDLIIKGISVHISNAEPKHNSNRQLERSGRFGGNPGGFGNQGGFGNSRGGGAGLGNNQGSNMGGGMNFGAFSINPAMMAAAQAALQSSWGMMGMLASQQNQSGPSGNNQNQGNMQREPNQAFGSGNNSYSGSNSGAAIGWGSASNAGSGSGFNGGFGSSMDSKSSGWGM

| Structure (SMILES) | Ki | Human brain derived TDP-43 aggregates Mean % competition at 250 nM | Human brain derived TDP-43 aggregates Mean % competition at 2 μM |
| --- | --- | --- | --- |
| Cn1cc(N2CCc3nc(-c4ccc(N5CC[C@@H](F)C5)nc4)sc3C2=O)cn1 [Example 1, (R)-2-(6-(3-fluoropyrrolidin-1-yl)pyridin-3-yl)-5-(1-methyl-1H-pyrazol-4-yl)-6,7-dihydrothiazolo[5,4-c]pyridin-4(5H)-one] | 18.7 nM |  |  |
| Cn1cc(N2CCc3nc(-c4ccc(N5CCC[C@@H](F)C5)nc4)sc3C2=O)cn1 [Example 2, (R)-2-(6-(3-fluoropiperidin-1-yl)pyridin-3-yl)-5-(1-methyl-1H-pyrazol-4-yl)-6,7-dihydrothiazolo[5,4-c]pyridin-4(5H)-one] | 71.7 nM | 61.0ª % | 92.5ª % |
| Nc1cc(N2CCc3nc(-c4ccc(N5CCCC5)nc4)sc3C2=O)ccc1F [Example 3, 5-(3-amino-4-fluorophenyl)-2-(6-(pyrrolidin-1-yl)pyridin-3-yl)-6,7-dihydrothiazolo[5,4-c]pyridin-4(5H)-one] | 73.1 nM | 62.2ª % | 91.2ª % |
| Cn1cc(N2CCc3nc(-c4ccc(N5CC[C@H](F)C5)nc4)sc3C2=O)cn1 [Example 13] |  | 69.4ª % | 105.0ª % |
| Nc1cccc(N2CCc3nc(-c4ccc(N5CCCC5)nc4)sc3C2=O)c1F [Example 14] | 58.8 nM | 44.0ª % | 85.7ª % |
| Nc1ccc(N2CCc3nc(-c4ccc(N5CCCC5)nc4)sc3C2=O)cc1F [Example 15] | 139 nM | 64.6ª % | 96.4ª % |
| N#Cc1c(N)cccc1N1CCc2nc(-c3ccc(N4CCCC4)nc3)sc2C1=O [Example 16, 2-amino-6-(4-oxo-2-(6-(pyrrolidin-1-yl)pyridin-3-yl)-6,7-dihydrothiazolo[5,4-c]pyridin-5(4H)-yl)benzonitrile] | 81 nM | 46.0ª % | 83.2ª % |
| N#Cc1ccc(N2CCc3nc(-c4ccc(N5CCCC5)nc4)sc3C2=O)cc1N [Example 17] |  | 82.0ª % | 95.0ª % |
| N#Cc1cc(N2CCc3nc(-c4ccc(N5CCCC5)nc4)sc3C2=O)ccc1N [Example 18] | 68.6 nM | 76.2ª % | 102.0ª % |
| N#Cc1ccc(N2CCc3nc(-c4ccc(N5CC[C@@H](F)C5)nc4)sc3C2=O)cc1N [Example 19] | 54.2 nM | 76.9ª % | 92.1ª % |
| N#Cc1cc(N2CCc3nc(-c4ccc(N5CC[C@@H](F)C5)nc4)sc3C2=O)ccc1N [Example 20] | 161 nM | 66.7ª % | 88.3ª % |
| N#Cc1c(N)cccc1N1CCc2nc(-c3ccc(N4CC[C@H](F)C4)nc3)sc2C1=O [Example 21, (S)-2-amino-6-(2-(6-(3-fluoropyrrolidin-1-yl)pyridin-3-yl)-4-oxo-6,7-dihydrothiazolo[5,4-c]pyridin-5(4H)-yl)benzonitrile] |  | 22.7ª % | 40.1ª % |
| N#Cc1ccc(N2CCc3nc(-c4ccc(N5CC[C@H](F)C5)nc4)sc3C2=O)cc1N [Example 22] |  | 64.2ª % | 80.3ª % |
